Data: patent US20160113888A1, “PHARMACEUTICAL COMPOSITION FOR TREATMENT OF CANCER” (NATIONAL INSTITUTE OF ADVANCED INDUSTRIAL SCIENCE AND …, priority 2013, published 2016)

Legend:
MMP-3 = assay: Expression level of MMP-3; assay type: cell-based, human; conditions: A549, 48 hours, AshLe-WEX 0.5% or TEG 0.5%, 1.0% or 2.0%, FIG. 14
Description: (§1) In order to examine the antimetastatic activity mechanism of […] and triethylene glycol, the expression levels of matrix metalloproteases (MMP-9, MMP-3, and MMP-2) were examined. Human lung cancer cells (A549) were used for examination. […] This effect was not observed for MMP-2.

MMP-2 = assay: Expression level of MMP-2; assay type: cell-based, human; conditions: A549, 48 hours, AshLe-WEX 0.5% or TEG 0.5%, 1.0% or 2.0%, FIG. 14
Description: as §1

pRB [1] = assay: Immunohistochemistry of pRB phosphorylation in TIG-1; assay type: cell-based, human; conditions: normal cells (TIG-1), 0.5%, 48 hours, FIG. 11
Procedure: (§2) Immunohistochemistry was conducted for visualizing the degree of phosphorylation of p53 and pRB in human osteosarcoma cells (U2OS) and normal human fibroblasts (TIG-1) treated with […] or triethylene glycol. Treatment with […] or triethylene glycol was conducted by adding […] or triethylene glycol to a medium such that a final concentration becomes 0.5% and culturing the cells in each medium for 48 hours. The cells were stained with an anti-p53 antibody (DO-1) and an anti-pRB antibody ([…]). Immunostaining was visualized using an Alexa-488- or Alexa-594-labeled secondary antibody. Regarding pRB, which is a downstream effector of a cyclin-CDK complex, the degree of phosphorylation decreased in cancer cells treated with […] or triethylene glycol but increased in normal cells treated with […] or triethylene glycol (FIG. 11).

pRB [2] = assay: Immunohistochemistry of pRB phosphorylation in U2OS; assay type: cell-based, human; conditions: cancer cells (U2OS), 0.5%, 48 hours, FIG. 11
Procedure: as §2

p53 [3] = assay: Western blotting of p53 in TIG-1; assay type: cell-based, human; conditions: normal cells (TIG-1)
Description: (§3) In order to investigate the cytotoxicity action mechanism of triethylene glycol, human osteosarcoma cells (U2OS) and normal human fibroblasts (TIG-1) were each treated with […] or triethylene glycol (TEG), and the expression of cancer-inhibiting proteins p53 and pRB was examined by SDS-PAGE and Western blotting. […] Numbers 1-5 in the bar charts of the expression level in the lower half of FIG. 10A correspond to numbers 1-5 of the lanes in the photo images in the upper half of FIG. 10A.

[4] = system: human osteosarcoma cells (U2OS); assay: Cytotoxicity assay using MTT, U2OS; assay type: cell-based; conditions: FIG. 5
Procedure: (§4) Human osteosarcoma cells (U2OS) were cultured in a humidified incubator (37° C., 5% CO2) using a medium in which Dulbecco's modified Eagle's medium (DMEM, Invitrogen) is added with 10% bovine fetal serum. The cells were cultured to become 40% to 60% confluent and treated with AshLe-WEX (final concentration: 1%; 200 μg/mL) and the 1st and 2nd fractions thereof (AshLe-WEX-F1 and F2), respectively. The cells were treated over about 48 hours during culture at 37° C.
(§5) AshLe-WEX and the fractions thereof were evaluated in terms of cytotoxicity by assay using MTT. After the above treatment, MTT (0.5 mg/mL) was added to each cell culture medium, followed by incubation for 4 hours. Next, the medium containing MTT was removed and 100 μL of DMSO was added to each well to completely dissolve formazan crystals. Absorbance was detected at 550 nm using a spectrophotometer (Wallac ARVO SX).
(§6) Cytotoxicity of triethylene glycol to human osteosarcoma cells (U2OS) and normal human fibroblasts (TIG-1) was tested in the manner described in item 5 above. […] Further, cell cycle analysis was conducted using human osteosarcoma cells (U2OS).

[5] = system: HT1080 cells (human fibrosarcoma cells); assay: In vivo antitumor assay, HT1080 subcutaneous xenograft; parameters: species or system Balb/c nude mice; conditions: oral administration, 250 μL of 5% triethylene glycol with 2% carboxymethyl cellulose, 12 times at intervals of two days, FIG. 7
Procedure: (§7) In vivo antitumor assay of AshLe-WEX and triethylene glycol was conducted using subcutaneous xenograft and tail vein metastasis model mice produced with the use of HT1080 cells from an invasive tumor with high lung metastasis (human fibrosarcoma cells, obtained from the JCRB Cell Bank).
HT1080 cells (6×10^6 cells in 0.2 mL of growth medium) were subcutaneously injected into Balb/c nude mice (4-week-old female mice purchased from CLEA Japan, Inc.) at two sites per mouse, and an equivalent amount of the same was injected into the tail vein of each mouse. 2% carboxymethyl cellulose was administered with feed to a control group. A mixture containing AshLe-WEX (100-250 mg/kg body weight/administration) and 2% carboxymethyl cellulose was administered with feed to an AshLe-WEX group. A TEG group was given a 5% triethylene glycol aqueous solution via oral administration (at a dose per administration of 250 μL of a preparation of 5% triethylene glycol mixed with 2% carboxymethyl cellulose) or intraperitoneal injection (at a dose per administration of 100 μL of 5% triethylene glycol). […] For metastasis assay, each mouse was euthanized by cervical dislocation 5 weeks after tail vein injection, the lung was fixed with 4% formaldehyde, and the number of tumor colonies was counted. […]

cyclin-B1 [6] = assay: Western blotting of cyclin-B1 in TIG-1; assay type: cell-based, human; conditions: normal cells (TIG-1), vs control, FIG. 10B
Description: as §3, with “10A. […] In parallel with the above, the expression levels of cyclin-B1, -D1, and -E1 and CDK-2, -4, and -6 were examined. […] On the other hand, the tendency regarding the expression levels for cyclin-D1 was the opposite of that for cyclin-B1. In the case of treatment with triethylene glycol, the expression level of cyclin-D1 increased in cancer cells but decreased in normal cells. The expression level of cyclin-E1 increased in both cancer cells and normal cells. The expression level of CDK-4 decreased in normal cells.” for “10A.”

cyclin-D1 [7] = assay: Western blotting of cyclin-D1 in TIG-1; assay type: cell-based, human; conditions: normal cells (TIG-1), FIG. 10B
Procedure: (§8) In order to investigate the cytotoxicity action mechanism of triethylene glycol, human osteosarcoma cells (U2OS) and normal human fibroblasts (TIG-1) were each treated with AshLe-WEX or triethylene glycol (TEG), and the expression of cancer-inhibiting proteins p53 and pRB was examined by SDS-PAGE and Western blotting. Treatment with AshLe-WEX or triethylene glycol (TEG) was conducted by adding AshLe-WEX (final concentration: 0.5%) or triethylene glycol (final concentration: 0.5%, 1.0%, or 2.0%) to a medium for culturing cells and culturing for 48 hours. […] Numbers 1-5 in the bar charts of the expression level in the lower half of FIG. 10A correspond to numbers 1-5 of the lanes in the photo images in the upper half of FIG. 10A. […] It was found based on the proportion of phosphorylated-p53/p53 that phosphorylation rate increased in cells treated with AshLe-WEX or triethylene glycol by 30% to 40%, as compared with the control group. […] The proportion of phosphorylated-pRB/RB decreased from about 0.5 in control cells to about 0.3 in cells treated with triethylene glycol ([…]) while it increased by about 20% in normal cells in contrast.
(§9) In parallel with the above, the expression levels of cyclin-B1, -D1, and -E1 and CDK-2, -4, and -6 were examined. […] On the other hand, the tendency regarding the expression levels for cyclin-D1 was the opposite of that for cyclin-B1. […]

[8] = system: HT1080 cells (human fibrosarcoma cells); assay: In vivo tumor metastasis assay, HT1080 tail vein injection; parameters: species or system Balb/c nude mice
Procedure: as §7, with “AshLe-WEX” left out, “Bank). […] This administration treatment was started on day 8 after injection of HT1080 cells and repeated 12 times in total at intervals of two days. […] This assay was repeated twice using three mice for each group.” for “Bank).”

cyclin-B1 [9] = assay: Western blotting of cyclin-B1 in U2OS; assay type: cell-based, human; conditions: cancer cells (U2OS), FIG. 10B
Description: as §3, with “10A. […] In parallel with the above, the expression levels of cyclin-B1, -D1, and -E1 and CDK-2, -4, and -6 were examined. […] On the other hand, the tendency regarding the expression levels for cyclin-D1 was the opposite of that for cyclin-B1. In the case of treatment with triethylene glycol, the expression level of cyclin-D1 increased in cancer cells but decreased in normal cells. The expression level of cyclin-E1 increased in both cancer cells and normal cells. The expression level of CDK-4 decreased in normal cells.” for “10A.”

CDK-4 = assay: Western blotting of CDK-4 in TIG-1; assay type: cell-based, human; conditions: normal cells (TIG-1), FIG. 10B
Procedure: as §8, §9

pRB [10] = assay: Western blotting of pRB in U2OS; assay type: cell-based, human
Description: as §3

cyclin-E1 [11] = assay: Western blotting of cyclin-E1 in U2OS; assay type: cell-based, human; conditions: cancer cells (U2OS), FIG. 10B
Procedure: as §8, §9

p53 [12] = assay: Western blotting of p53 in U2OS; assay type: cell-based, human
Description: as §3

cyclin-E1 [13] = assay: Western blotting of cyclin-E1 in TIG-1; assay type: cell-based, human; conditions: normal cells (TIG-1), FIG. 10B
Procedure: as §8, §9

[14] = system: normal human fibroblasts (TIG-1); assay: Cytotoxicity assay using MTT, TIG-1; assay type: cell-based; conditions: TIG-1, FIG. 5
Procedure: as §4, §5, §6

[15] = system: glioblastoma cells (C6 Glioma cells); assay: Differentiation induction assay of glioblastoma cells; assay type: cell-based; conditions: 0.6%, 48 hours
Procedure: Differentiation induction of glioblastoma cells and neuroblastoma cells by triethylene glycol was examined. Differentiation of glioblastoma cells was induced by treating the cells with 100 μmol of hydrogen peroxide for 2 to 3 hours and then culturing the cells in a medium containing […] or triethylene glycol (final concentration: 0.6%) for 48 hours. Cells of a control group were treated with hydrogen peroxide in the above manner and then cultured in a medium containing neither […] nor triethylene glycol.

[16] = system: IMR32 neuroblastoma cells; assay: Differentiation induction assay of neuroblastoma cells; assay type: cell-based; conditions: 0.5%, FIG. 16
Procedure: Next, effects on IMR32 neuroblastoma cells treated with […] or triethylene glycol were examined. Differentiation of neuroblastoma cells was induced by treating the neuroblastoma cells with 100 μmol of hydrogen peroxide for 2 to 3 hours and then culturing the cells in a medium containing […] or triethylene glycol (final concentration: 0.5%). As control groups, a group of cells that had been treated with hydrogen peroxide in the above manner and then cultured in a medium containing neither […] nor triethylene glycol and a group of cells that no hydrogen peroxide treatment was conducted and cultured in a medium containing neither […] nor triethylene glycol without hydrogen peroxide treatment were prepared.

Keap1 = assay: Western blotting of Keap1 expression; assay type: cell-based; conditions: human lung cancer cells (A549), FIG. 13
MMP-9 = assay: Expression level of MMP-9; assay type: cell-based, human; conditions: A549, 48 hours, AshLe-WEX 0.5% or TEG 0.5%, 1.0% or 2.0%, FIG. 14
Description: as §1

pRB [17] = assay: Western blotting of pRB in TIG-1; assay type: cell-based, human; conditions: normal cells (TIG-1), vs control
Description: as §3

[18] = system: human osteosarcoma cells (U2OS); assay: Cell cycle analysis; assay type: cell-based; conditions: FIG. 6
Procedure: as §6

cyclin-D1 [19] = assay: Western blotting of cyclin-D1 in U2OS; assay type: cell-based, human; conditions: cancer cells (U2OS), FIG. 10B
Procedure: as §8, §9

HT1080 cells = assay: In vitro Matrigel invasion assay; assay type: cell-based, human; conditions: FIG. 9
p21 = assay: Western blotting of p21 in TIG-1; assay type: cell-based, human; conditions: normal cells (TIG-1), 48 hours, vs control, FIG. 10A
Description: as §3

[20] = cancer cells (U2OS), vs control

OCCOCCOCCO [triethylene glycol]
expression level of MMP-3 (MMP-3): remarkably decreased
decrease of expression level of MMP-2 (MMP-2): not observed
degree of phosphorylation of pRB (immunohistochemistry) (pRB [1]): increased
degree of phosphorylation of pRB (immunohistochemistry) (pRB [2]): decreased
expression level of p53 (p53 [3]; 48 hours, vs control, FIG. 10A): increased
phosphorylated-p53 protein (p53 [3]; anti-phosphoserine-specific antibody): increased
concentration at which cancer cell growth is inhibited [4]: ≥ 0.5%
tumor growth [5]: effect of tumor growth inhibition was confirmed
expression level of cyclin-B1 (cyclin-B1 [6]): increased
expression level of cyclin-D1 (cyclin-D1 [7]): decreased
antimetastatic activity ([8]; lung, 5 weeks after tail vein injection, FIG. 8): powerful antimetastatic activity
number of lung tumors ([8]; vs control group, FIG. 8): lower than that of the control group
lung tumor volumes ([8]; vs control group, FIG. 8B): significantly low
expression level of cyclin-B1 (cyclin-B1 [9]): decreased
expression level of CDK-4 (CDK-4): decreased
proportion of phosphorylated-pRB/RB (pRB [10]; cancer cells (U2OS) treated, control cells about 0.5): about 0.3
decrease of proportion of phosphorylated-pRB/RB (pRB [10]; [20]): about 20%
phosphorylated-pRB (pRB [10]; [20]): decreased
expression level of cyclin-E1 (cyclin-E1 [11]): increased
expression level of p53 (p53 [12]; U2OS, 48 hours, AshLe-WEX 0.5% or TEG 0.5%, 1.0% or 2.0%, vs control, FIG. 10A): increased
phosphorylated-p53 protein (p53 [12]; cancer cells (U2OS), anti-phosphoserine-specific antibody): increased
expression level of cyclin-E1 (cyclin-E1 [13]): increased
toxicity to normal human fibroblasts [14]: substantially no toxicity
cell form (differentiation induction) ([15]; after 100 μmol hydrogen peroxide 2 to 3 hours, FIG. 15A): astrocyte-like form
induction of GFAP (glial cell differentiation marker protein) ([15]; after hydrogen peroxide, FIG. 15B): upregulated
cell form (differentiation induction) ([16]; after 100 μmol hydrogen peroxide 2 to 3 hours): neuron-like form
neurofilament protein (NF200) ([16]; after hydrogen peroxide): increase
expression level of Keap1 (Keap1): increase
expression level of MMP-9 (MMP-9): remarkably decreased
increase of proportion of phosphorylated-pRB/RB (pRB [17]): about 20%
phosphorylated-pRB (pRB [17]): increased
cell cycle effect [18]: G1 arrest
expression level of cyclin-D1 (cyclin-D1 [19]): increased
invasion (HT1080 cells): reduced
expression level of p21 (p21): increased
